Converted amounts (≈) assume the structure as drawn. Read-outs that look alike come from different tables or passages of the source.
Columns and labels:
Format in all cases: cell-based
[1] = system: wild-type E. coli A-1261; test: MIC against wild-type E. coli A-1261 with or without alkaline phosphatase or esterase; details: Escherichia coli
Description: Minimal Inhibitory Concentrations (MICs; mg/L) were determined in cation-adjusted Mueller-Hinton Broth by a microdilution method following the description given in “Methods for Dilution Antimicrobial Susceptibility Tests for Bacteria that Grow Aerobically”, Approved standard, 7th ed., a Clinical and Laboratory Standards Institute (CLSI) Document M7-A7, Wayne, Pa., USA (2006).
The compounds of Examples 37, 50, 51 and 74 were tested against wild-type E. coli A-1261 in the absence of alkaline phosphatase or esterase, in the presence of an alkaline phosphatase and in the presence of an esterase. The corresponding antibacterial test results are given in Table 2 hereafter (MICs in mg/L).

[2] = system: K. pneumoniae A-651; test: Bacterial growth minimal inhibitory concentration (microdilution, cation-adjusted Mueller-Hinton Broth); details: Klebsiella pneumoniae, A651; multiply-resistant strain (in particular quinolone-resistant); read-out: MIC for K. Pneumoniae A-651
In short: (§1)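 Broth microdilution in cation-adjusted Mueller-Hinton Broth per CLSI M7-A7, MIC in mg/L. K. pneumoniae A-651 is multiply resistant, including to quinolones. E. coli ATCC25922 and P. aeruginosa ATCC27853 are quinolone-sensitive.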

[3] = system: P. aeruginosa ATCC27853; test: as above; details: Pseudomonas aeruginosa, ATCC27853, quinolone-sensitive strain; read-out: MIC for P. aeruginosa ATCC27853
In short: as §1

[4] = system: E. coli ATCC25922; test: as above; details: Escherichia coli, ATCC25922; quinolone-sensitive strain; read-out: MIC for E. coli ATCC25922
In short: as §1

[5] = read-out: MIC for E. coli A-1261 In the absence of alkaline phosphatase or esterase
[6] = read-out: MIC for E. coli A-1261 In the presence of an alkaline phosphatase (2 i.U./mL)
[7] = read-out: MIC for E. coli A-1261 In the presence of an esterase (10 i.U./mL)

Structure (SMILES) | MIC [1, 5] | MIC [1, 6] | MIC [1, 7] | MIC [2] | MIC [3] | MIC [4]
CN(C)CC(=O)OCC1(c2ccc(C#Cc3cc4n(c3)C(=O)N(CC[C@](C)(C(=O)NO)S(C)(=O)=O)C4)cc2)CC1.Cl [Example 37, (R)-(1-(4-((2-(4-(hydroxyamino)-3-methyl-3-(methylsulfonyl)-4-oxobutyl)-3-oxo-2,3-dihydro-1H-pyrrolo[1,2-c]imidazol-6-yl)ethynyl)phenyl)cyclopropyl)methyl dimethylglycinate hydrochloride] | 0.25 µg/mL | 0.125 µg/mL | 0.25 µg/mL | 1 µg/mL | 4 µg/mL | 0.5 µg/mL
CN(C)CC(=O)OCC1(C#CC#Cc2cc3n(c2)C(=O)N(CC[C@](C)(C(=O)NO)S(C)(=O)=O)C3)CC1.Cl [Example 50, (R)-(1-((2-(4-(hydroxyamino)-3-methyl-3-(methylsulfonyl)-4-oxobutyl)-3-oxo-2,3-dihydro-1H-pyrrolo[1,2-c]imidazol-6-yl)buta-1,3-diyn-1-yl)cyclopropyl)methyl dimethylglycinate hydrochloride] | 2 µg/mL | 1 µg/mL | 0.5 µg/mL |  |  | 
C[C@@](CCN1Cc2cc(C#CC#CC3(COP(=O)(O)O)CC3)cn2C1=O)(C(=O)NO)S(C)(=O)=O [Example 51, (R)-(1-((2-(4-(hydroxyamino)-3-methyl-3-(methylsulfonyl)-4-oxobutyl)-3-oxo-2,3-dihydro-1H-pyrrolo[1,2-c]imidazol-6-yl)buta-1,3-diyn-1-yl)cyclopropyl)methyl dihydrogen phosphate] | > 16 µg/mL | 0.5 µg/mL | 16 µg/mL |  |  | 
C[C@@](CCN1Cc2cc(C#CC#CC3(NC(=O)OCOP(=O)(O)O)CC3)cn2C1=O)(C(=O)NO)S(C)(=O)=O [Example 74, (phosphonooxy)methyl (R)-(1-((2-(4-(hydroxyamino)-3-methyl-3-(methylsulfonyl)-4-oxobutyl)-3-oxo-2,3-dihydro-1H-pyrrolo[1,2-c]imidazol-6-yl)buta-1,3-diyn-1-yl)cyclopropyl)carbamate] | 4 µg/mL (≈ 6.99 µM) | 0.25 µg/mL | 4 µg/mL |  |  | 
